Measured values reported in patent US20210396738A1, “3D HUMAN CANCER MODEL-BASED COMBINATORIAL DRUG DEVELOPMENT METHOD” (PreComb Therapeutics AG, priority 2018, published 2021).
“Also recorded” adds a separate entry of the source. Read-outs that look alike come from different tables or passages of the source.

Experiments:
[1] = system: NSCLC microtumors (A549 NSCLC cells with human lung fibroblasts Wi38); test: Non-small cell lung cancer (NSCLC) microtumor size/growth assay; assay type: cell-based; settings: for efficacy: impact on tumor growth: Vinorelbin high concentration vs low and high concentrated Docetaxel, dosed 2× for 8h with an 8h gap (FIG. 13B, D); for effect on NSCLC microtumor growth: dosed 2× for 8h with 48h gap (FIG. 6, FIG. 11); for Response: 14 days window
Method: The NSCLC model was produced by mixing A549 NSCLC cells (ATCC® CCL-18S™) with human lung fibroblasts (Wi38, ATCC® CCL-7S™) in a non-adhesive 96-well plate (GravityTRAP™). Drugs were dosed 2× for 8h with 48h gap.
Single and drug combinations were dosed 2× for 8h with a gap of 48h and growth monitored over time.
(§1) FIG. 13 exemplifies tox testing of single drugs using connective/stromal microtissues (Wi38) and efficacy testing on non-small cell tumor microtissues (A549; Wi38). Vinorelbin and Docetaxel, both disrupting microtubule, were dosed 2× for 8h with an 8h gap.

[2] = system: connective/stromal microtissues (Wi38); test: Tox testing on connective/stromal microtissues; assay type: cell-based, human; settings: dosed 2× for 8h with an 8h gap (FIG. 13A, C)
Method: as §1

[3] = system: microtumors from NSCLC cells directly derived from patients (NSCLC resection); test: Patient-derived NSCLC microtumor growth assay; assay type: cell-based, human; settings: dosed 2× for 8h with a 48h gap (FIG. 12)
Method: A NSCLC resection was dissociated, and the cell Suspension used to produce microtumors in a multi-well format (FIG. 12A). Drugs were dosed 2× for 8h with a 48h gap.

[4] = system: pancreatic microtumors from pancreatic cancer cell line Panc-1 in co-culture with mouse fibroblast cell line NIH3T3; test: Pancreatic microtumor (3D microtissue) size/growth assay; settings: for effect on pancreatic microtumor growth: dosed for 8h with a 48h gap (FIG. 5); for Response: 14 days window; for ΔT14/ΔC14: day 14
Method: Both cells were expanded in cell culture flasks using Dulbecco's modification of Eagle medium (DMEM) supplemented with 10% fetal calf serum. After reaching confluency the were removed from the cell culture flask enzymatic digestion (Trypsin). Cell numbers of both cell types were assessed using a Neubauer chamber, and the respective cell number mixed to produce the co-culture microtumors. Seventy ul of the cell mixture was inoculated in each well of a non-adhesive 96-well plates (GravityTRAP™) using Dulbecco's modification of Eagle medium (DMEM) supplemented with 10% horse serum. Pancreatic microtumors were matured in a mammalian cell culture incubator at 37° C. with 5% CO2. […] After 48 hours the drug was removed by changing the culture medium with drug-free medium. The size of the pancreatic microtumors was monitored prior dosing and continuously after dosing using bright field microscopy. Growth is presented relative to the size of the pancreatic tumor microtissue prior compound treatment t0 (adapted from the RECIST criteria).
All drugs used were dissolved according to the manufactures protocol.

[5] = reference cmax used for potency; cited from earlier work

CCC1=C[C@@H]2CN(C1)Cc1c([nH]c3ccccc13)[C@@](C(=O)OC)(c1cc3c(cc1OC)N(C)[C@H]1[C@@](O)(C(=O)OC)[C@H](OC(C)=O)[C@]4(CC)C=CCN5CC[C@]31[C@@H]54)C2 [Vinorelbin]
efficacy: impact on tumor growth [1]: less impact on tumor growth | cytotoxicity on stromal microtissues compared to untreated control ([2]; high dose 0.68 ug/ml): elevated cytotoxicity

C#Cc1cccc(Nc2ncnc3cc(OCCOC)c(OCCOC)cc23)c1 [Erlotinib]
effect on NSCLC microtumor growth [1]: reduced growth | time after which growth relapses ([1]; dosed 2× for 8h with a gap of 48h (FIG. 11)): > 7 days | impact on tumor growth, single doses [3]: hardly an impact on tumor growth

CC(=O)O[C@@]12CO[C@@H]1C[C@H](O)[C@@]1(C)C(=O)[C@H](O)C3=C(C)[C@@H](OC(=O)[C@H](O)[C@@H](NC(=O)OC(C)(C)C)c4ccccc4)C[C@@](O)([C@@H](OC(=O)c4ccccc4)[C@H]21)C3(C)C [Docetaxel]
efficacy: impact on tumor growth [1]: higher efficacy | effect on pancreatic microtumor growth [4]: much slower | sustainability of response ([4]; dosed for 8h with a 48h gap, compared with Gemcitabine (FIG. 5A)): more sustainable | cytotoxicity on stromal microtissues compared to untreated control ([2]; 4.05 ug/ml): less toxicity

CCc1c2c(nc3ccc(OC(=O)N4CCC(N5CCCCC5)CC4)cc13)-c1cc3c(c(=O)n1C2)COC(=O)[C@]3(O)CC [Irinotecan]
ΔT14/ΔC14 [1]: −0.32 | Time to MR (TMR) ([1]; Irinotecan 6.75 ug/ml): 4 days | Time until relapse (TR) ([1]; Irinotecan 6.75 ug/ml): 5 days | ΔT14/ΔC14 ([1]; Irinotecan 6.75 ug/ml, day 14): −0.60 | Time to MR (TMR) ([1]; Irinotecan 27 ug/ml): 14 days | Response ([1]; Irinotecan 27 ug/ml): RE (≥20% decrease in microtumor size) | ΔT14/ΔC14 ([1]; Irinotecan 27 ug/ml, day 14): −3.09 | Response ([4]; Irinotecan 0.675 ug/ml): PR (≥20%-100% increase in microtumor size) | ΔT14/ΔC14 ([4]; Irinotecan 0.675 ug/ml): 1.04 | Time to MR (TMR) ([4]; Irinotecan 6.75 ug/ml): 7 days | Time until relapse (TR) ([4]; Irinotecan 6.75 ug/ml): 7 days | Response ([4]; Irinotecan 6.75 ug/ml): SR (+/−20% increase/decrease in size) | ΔT14/ΔC14 ([4]; Irinotecan 6.75 ug/ml): 0.06 | Time to MR (TMR) ([4]; Irinotecan 67.5 ug/ml): 14 days | Response ([4]; Irinotecan 67.5 ug/ml): RE (≥20% decrease in microtumor size) | ΔT14/ΔC14 ([4]; Irinotecan 67.5 ug/ml): −0.36 | dose to growth correlation ([4]; indicated concentrations, drug removed after 48 hours, growth relative to size at t0 (FIG. 4)): clear correlation of dose to growth | median cmax [5]: (median cmax = 5 ug/ml)

Nc1ccn([C@@H]2O[C@H](CO)[C@@H](O)C2(F)F)c(=O)n1 [Gemcitabine]
Time to MR (TMR) ([1]; Gemcitabine 0.1 ug/ml): 14 days | Response ([1]; Gemcitabine 0.1 ug/ml): RE (≥20% decrease in microtumor size) | ΔT14/ΔC14 ([1]; Gemcitabine 0.1 ug/ml, day 14): −2.72 | Time to MR (TMR) ([1]; Gemcitabine 0.3 ug/ml): 14 days | Response ([1]; Gemcitabine 0.3 ug/ml): RE (≥20% decrease in microtumor size) | ΔT14/ΔC14 ([1]; Gemcitabine 0.3 ug/ml, day 14): −4.04 | Time to MR (TMR) ([1]; Gemcitabine 0.5 ug/ml): 14 days | Response ([1]; Gemcitabine 0.5 ug/ml): RE (≥20% decrease in microtumor size) | ΔT14/ΔC14 ([1]; Gemcitabine 0.5 ug/ml, day 14): −3.87 | Time to MR (TMR) ([4]; Gemcitabine 0.1 ug/ml): 10 days | Time until relapse (TR) ([4]; Gemcitabine 0.1 ug/ml): 10 days | Response ([4]; Gemcitabine 0.1 ug/ml): SR (+/−20% increase/decrease in size) | ΔT14/ΔC14 ([4]; Gemcitabine 0.1 ug/ml, treatment effect to untreated control): −0.25 | Time to MR (TMR) ([4]; Gemcitabine 0.5 ug/ml): 10 days | Time until relapse (TR) ([4]; Gemcitabine 0.5 ug/ml): 10 days | Response ([4]; Gemcitabine 0.5 ug/ml): SR (+/−20% increase/decrease in size) | ΔT14/ΔC14 ([4]; Gemcitabine 0.5 ug/ml): −0.23 | effect on pancreatic microtumor growth [4]: unfolds its effect quickly | day after which treated microtumors relapsed ([4]; dosed for 8h with a 48h gap (FIG. 5A)): > 10 days | median cmax [5]: (median cmax = 20 ug/ml)

O=C1CCC(N2C(=O)c3ccccc3C2=O)C(=O)N1 (stereo not drawn) [Thalidomide]
effect on NSCLC microtumor growth [1]: no significant impact on tumor growth remission | impact on tumor growth, single doses [3]: hardly an impact on tumor growth

Nc1nc2[nH]cc(CCc3ccc(C(=O)N[C@@H](CCC(=O)O)C(=O)O)cc3)c2c(=O)[nH]1 [Pemetrexed]
effect on NSCLC microtumor growth [1]: tumor remission | effect on pancreatic microtumor growth [4]: did not affect tumor growth; also recorded: not active
